What was measured:
[1] = target: T1, C. elegans KCC-2 (Caenorhabditis elegans, UniProt G5EEC9); experiment: […] influx into Xenopus oocytes; format: cell-based
T1 sequence (G5EEC9 1-1079): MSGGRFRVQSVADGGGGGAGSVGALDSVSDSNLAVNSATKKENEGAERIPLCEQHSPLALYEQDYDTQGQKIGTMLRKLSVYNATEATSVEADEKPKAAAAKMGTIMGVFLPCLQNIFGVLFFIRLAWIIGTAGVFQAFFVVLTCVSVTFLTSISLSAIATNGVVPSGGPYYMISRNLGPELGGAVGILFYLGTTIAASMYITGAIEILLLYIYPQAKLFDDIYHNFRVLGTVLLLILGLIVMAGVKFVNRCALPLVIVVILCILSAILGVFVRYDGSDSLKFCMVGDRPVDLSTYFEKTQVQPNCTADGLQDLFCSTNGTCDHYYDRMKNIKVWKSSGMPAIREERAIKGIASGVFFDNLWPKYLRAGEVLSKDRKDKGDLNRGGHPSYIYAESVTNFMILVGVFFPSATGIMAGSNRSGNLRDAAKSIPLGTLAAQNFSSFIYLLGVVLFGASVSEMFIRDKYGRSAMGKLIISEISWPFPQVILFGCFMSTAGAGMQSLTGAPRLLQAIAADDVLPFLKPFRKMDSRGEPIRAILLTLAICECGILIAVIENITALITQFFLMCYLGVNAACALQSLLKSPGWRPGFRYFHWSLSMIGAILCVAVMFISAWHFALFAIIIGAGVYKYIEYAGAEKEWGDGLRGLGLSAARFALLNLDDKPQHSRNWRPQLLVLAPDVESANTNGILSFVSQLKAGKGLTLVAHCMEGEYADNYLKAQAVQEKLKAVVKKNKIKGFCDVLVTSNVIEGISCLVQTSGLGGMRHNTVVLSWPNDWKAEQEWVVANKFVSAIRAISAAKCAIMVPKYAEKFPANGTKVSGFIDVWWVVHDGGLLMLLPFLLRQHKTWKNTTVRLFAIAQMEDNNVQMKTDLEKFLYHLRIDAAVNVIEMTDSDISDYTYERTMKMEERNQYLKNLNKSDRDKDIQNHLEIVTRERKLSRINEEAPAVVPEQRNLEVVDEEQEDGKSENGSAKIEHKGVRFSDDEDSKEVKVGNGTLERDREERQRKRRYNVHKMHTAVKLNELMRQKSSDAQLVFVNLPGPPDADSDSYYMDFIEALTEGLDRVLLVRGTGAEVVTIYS

[2] = target: T2, rat KCC2 (Rattus norvegicus, UniProt Q63633); experiment: […] influx into Xenopus oocytes; format: cell-based; details: hypotonic medium, 79 mM chloride, 2 mM RbCl; 0.01 mM ouabain; inhibitor
T2 sequence (Q63633 1-1139): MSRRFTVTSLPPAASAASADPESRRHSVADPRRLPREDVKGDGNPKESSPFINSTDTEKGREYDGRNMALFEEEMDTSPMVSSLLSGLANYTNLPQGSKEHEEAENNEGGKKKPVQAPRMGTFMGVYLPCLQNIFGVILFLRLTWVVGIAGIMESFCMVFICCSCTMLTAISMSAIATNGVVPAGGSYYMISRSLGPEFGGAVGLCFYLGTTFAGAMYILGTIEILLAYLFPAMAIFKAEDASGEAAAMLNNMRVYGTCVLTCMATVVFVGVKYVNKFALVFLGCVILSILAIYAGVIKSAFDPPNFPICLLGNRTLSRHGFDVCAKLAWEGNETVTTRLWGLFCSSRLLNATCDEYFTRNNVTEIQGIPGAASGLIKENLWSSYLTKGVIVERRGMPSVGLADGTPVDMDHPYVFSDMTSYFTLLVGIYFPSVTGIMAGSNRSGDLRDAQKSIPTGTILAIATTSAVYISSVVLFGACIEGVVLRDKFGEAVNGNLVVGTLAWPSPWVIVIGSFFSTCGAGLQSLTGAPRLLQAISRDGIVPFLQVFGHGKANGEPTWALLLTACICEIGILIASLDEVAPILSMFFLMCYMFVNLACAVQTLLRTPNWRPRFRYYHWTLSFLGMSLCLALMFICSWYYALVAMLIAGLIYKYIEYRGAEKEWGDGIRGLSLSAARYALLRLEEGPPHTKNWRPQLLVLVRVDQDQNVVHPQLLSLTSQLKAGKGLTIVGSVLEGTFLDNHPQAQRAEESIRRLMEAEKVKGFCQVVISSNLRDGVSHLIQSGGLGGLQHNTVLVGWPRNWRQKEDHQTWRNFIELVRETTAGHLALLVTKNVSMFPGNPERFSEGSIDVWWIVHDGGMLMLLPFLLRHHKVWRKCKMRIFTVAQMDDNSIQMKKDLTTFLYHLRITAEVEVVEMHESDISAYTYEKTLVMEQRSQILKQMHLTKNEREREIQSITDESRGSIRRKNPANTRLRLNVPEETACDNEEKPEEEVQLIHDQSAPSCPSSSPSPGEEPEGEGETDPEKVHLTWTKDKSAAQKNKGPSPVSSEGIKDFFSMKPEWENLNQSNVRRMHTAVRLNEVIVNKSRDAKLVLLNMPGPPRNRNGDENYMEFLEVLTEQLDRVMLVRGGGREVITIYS

IC50 [1]: 32 ± 3 µM
IC50 [2]: 72 ± 16 µM
SMILES: CCCCNc1cc(C(=O)O)cc(S(N)(=O)=O)c1Oc1ccccc1 [bumetanide]

— publication PMC2737711 (The Journal of neuroscience : the official journal of the …, 2009)
